Laboratory results reported in PubChem BioAssay AID256 (DTP/NCI, 2004).
Values joined by “and” are separate entries in the source; they are usually repeats but may differ in a detail not shown here. Identical values can stand only once. Toxic doses and inconclusive results are not listed.

System: CD2F1 mice, L1210 leukemia ip, survival T/C
Test: NCI In Vivo Anticancer Drug Screen. Data for tumor model L1210 Leukemia (intraperitoneal) in CD2F1 (CDF1) mice
Conditions: higher = longer survival
Method in brief: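 Antitumor effect is scored in animals hosting a serially transplanted tumor. Values compare compound-dosed animals against vehicle-only controls as a simple quotient.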

O=C1NC(=O)C2C3C=CC(C12)C1C2C(=O)NC(=O)C2C31 (stereo not drawn)
T/C (endpoint: mean survival time, dose: 12.5 mg/kg/injection, schedule: Q01DX009 (ip), vehicle: saline with Tween-80): 115 % of control
T/C (endpoint: mean survival time, dose: 12.5 mg/kg/injection, schedule: Q01DX009 (oral), vehicle: saline with Tween-80): 100 % of control
T/C (endpoint: mean survival time, dose: 25.0 mg/kg/injection, schedule: Q01DX009 (oral), vehicle: saline with Tween-80): 96 % of control
T/C (endpoint: mean survival time, dose: 50.0 mg/kg/injection, schedule: Q01DX009 (ip), vehicle: saline with Tween-80): 164 % of control
T/C (endpoint: mean survival time, dose: 50.0 mg/kg/injection, schedule: Q01DX009 (oral), vehicle: saline with Tween-80): 101 % of control
T/C (endpoint: mean survival time, dose: 100.0 mg/kg/injection, schedule: Q01DX009 (ip), vehicle: saline with Tween-80): 188 % of control
T/C (endpoint: mean survival time, dose: 100.0 mg/kg/injection, schedule: Q01DX009 (oral), vehicle: saline with Tween-80): 104 % of control
T/C (endpoint: mean survival time, dose: 200.0 mg/kg/injection, schedule: Q01DX009 (oral), vehicle: saline with Tween-80): 101 % of control
T/C (endpoint: mean survival time, dose: 400.0 mg/kg/injection, schedule: Q01DX009 (oral), vehicle: saline with Tween-80): 111 % of control
T/C (endpoint: median survival time, dose: 2.6 mg/kg/injection, schedule: Q03HX024 (ip), vehicle: clinical formulation): 110 % of control
T/C (endpoint: median survival time, dose: 3.12 mg/kg/injection, schedule: Q01DX009 (ip), vehicle: clinical formulation): 106 % of control
T/C (endpoint: median survival time, dose: 3.12 mg/kg/injection, schedule: Q01DX009 (ip), vehicle: saline with Tween-80): 108 % of control
T/C (endpoint: median survival time, dose: 6.0 mg/kg/injection, schedule: Q03HX027 (ip), vehicle: saline): 112 % of control
T/C (endpoint: median survival time, dose: 6.25 mg/kg/injection, schedule: Q01DX009 (ip), vehicle: clinical formulation): 108 % of control
T/C (endpoint: median survival time, dose: 6.9 mg/kg/injection, schedule: Q01DX009 (ip), vehicle: clinical formulation): 102 % of control
T/C (endpoint: median survival time, dose: 7.8 mg/kg/injection, schedule: Q03HX008 (ip), vehicle: clinical formulation): 162 % of control
T/C (endpoint: median survival time, dose: 10.4 mg/kg/injection, schedule: Q03HX024 (ip), vehicle: clinical formulation): 162 % of control
T/C (endpoint: median survival time, dose: 11.8 mg/kg/injection, schedule: Q01DX009 (ip), vehicle: water): 108 % of control
T/C (endpoint: median survival time, dose: 12.5 mg/kg/injection, schedule: Q01DX005 (ip), vehicle: clinical formulation): 100 % of control
T/C (endpoint: median survival time, dose: 12.5 mg/kg/injection, schedule: Q01DX005 (ip), vehicle: other): 101 % of control and 106 % of control
T/C (endpoint: median survival time, dose: 12.5 mg/kg/injection, schedule: Q01DX005 (iv), vehicle: clinical formulation): 108 % of control
T/C (endpoint: median survival time, dose: 12.5 mg/kg/injection, schedule: Q01DX005 (iv), vehicle: other): 103 % of control and 104 % of control
T/C (endpoint: median survival time, dose: 12.5 mg/kg/injection, schedule: Q01DX009 (ip), vehicle: clinical formulation): 112 % of control
T/C (endpoint: median survival time, dose: 12.5 mg/kg/injection, schedule: Q01DX009 (ip), vehicle: saline with Tween-80): 116 % of control
T/C (endpoint: median survival time, dose: 12.5 mg/kg/injection, schedule: Q01DX009 (oral), vehicle: other): 100 % of control
T/C (endpoint: median survival time, dose: 13.8 mg/kg/injection, schedule: Q01DX009 (ip), vehicle: clinical formulation): 101 % of control
T/C (endpoint: median survival time, dose: 14.0 mg/kg/injection, schedule: Q01DX009 (ip), vehicle: water): 117 % of control
T/C (endpoint: median survival time, dose: 16.7 mg/kg/injection, schedule: Q03HX027 (ip), vehicle: saline): 152 % of control
T/C (endpoint: median survival time, dose: 18.0 mg/kg/injection, schedule: Q01DX009 (ip), vehicle: clinical formulation): 110 % of control
T/C (endpoint: median survival time, dose: 18.0 mg/kg/injection, schedule: Q01DX009 (ip), vehicle: saline): 103 % of control
T/C (endpoint: median survival time, dose: 18.0 mg/kg/injection, schedule: Q01DX009 (ip), vehicle: water): 113 % of control
T/C (endpoint: median survival time, dose: 19.7 mg/kg/injection, schedule: Q01DX009 (ip), vehicle: water): 107 % of control
T/C (endpoint: median survival time, dose: 20.8 mg/kg/injection, schedule: Q03HX024 (ip), vehicle: clinical formulation): 114 % of control
T/C (endpoint: median survival time, dose: 20.8 mg/kg/injection, schedule: Q04DX003 (ip), vehicle: clinical formulation): 121 % of control
T/C (endpoint: median survival time, dose: 23.3 mg/kg/injection, schedule: Q01DX009 (ip), vehicle: water): 150 % of control
T/C (endpoint: median survival time, dose: 25.0 mg/kg/injection, schedule: Q01DX001 (iv), vehicle: other): 100 % of control
T/C (endpoint: median survival time, dose: 25.0 mg/kg/injection, schedule: Q01DX005 (ip), vehicle: clinical formulation): 114 % of control
T/C (endpoint: median survival time, dose: 25.0 mg/kg/injection, schedule: Q01DX005 (ip), vehicle: other): 108 % of control
T/C (endpoint: median survival time, dose: 25.0 mg/kg/injection, schedule: Q01DX005 (iv), vehicle: other): 101 % of control and 109 % of control
T/C (endpoint: median survival time, dose: 25.0 mg/kg/injection, schedule: Q01DX005 (oral), vehicle: other): 98 % of control
T/C (endpoint: median survival time, dose: 25.0 mg/kg/injection, schedule: Q01DX009 (ip), vehicle: clinical formulation): 122 % of control
T/C (endpoint: median survival time, dose: 25.0 mg/kg/injection, schedule: Q01DX009 (oral), vehicle: other): 98 % of control
T/C (endpoint: median survival time, dose: 27.7 mg/kg/injection, schedule: Q01DX009 (ip), vehicle: clinical formulation): 154 % of control
T/C (endpoint: median survival time, dose: 27.8 mg/kg/injection, schedule: Q03HX027 (ip), vehicle: saline): 183 % of control
T/C (endpoint: median survival time, dose: 30.0 mg/kg/injection, schedule: Q01DX009 (ip), vehicle: clinical formulation): 166 % of control
T/C (endpoint: median survival time, dose: 30.0 mg/kg/injection, schedule: Q01DX009 (ip), vehicle: water): 186 % of control
T/C (endpoint: median survival time, dose: 32.9 mg/kg/injection, schedule: Q01DX009 (ip), vehicle: water): 226 % of control
T/C (endpoint: median survival time, dose: 38.9 mg/kg/injection, schedule: Q01DX009 (ip), vehicle: water): 200 % of control
T/C (endpoint: median survival time, dose: 46.3 mg/kg/injection, schedule: Q03HX027 (ip), vehicle: saline): 88 % of control
T/C (endpoint: median survival time, dose: 50.0 mg/kg/injection, schedule: Q01DX001 (iv), vehicle: other): 106 % of control
T/C (endpoint: median survival time, dose: 50.0 mg/kg/injection, schedule: Q01DX001 (oral), vehicle: other): 100 % of control
T/C (endpoint: median survival time, dose: 50.0 mg/kg/injection, schedule: Q01DX005 (ip), vehicle: clinical formulation): 198 % of control
T/C (endpoint: median survival time, dose: 50.0 mg/kg/injection, schedule: Q01DX005 (iv), vehicle: clinical formulation): 174 % of control
T/C (endpoint: median survival time, dose: 50.0 mg/kg/injection, schedule: Q01DX005 (iv), vehicle: other): 185 % of control
T/C (endpoint: median survival time, dose: 50.0 mg/kg/injection, schedule: Q01DX005 (oral), vehicle: other): 101 % of control
T/C (endpoint: median survival time, dose: 50.0 mg/kg/injection, schedule: Q01DX009 (ip), vehicle: clinical formulation): 176 % of control and 203 % of control
T/C (endpoint: median survival time, dose: 50.0 mg/kg/injection, schedule: Q01DX009 (ip), vehicle: saline with Tween-80): 246 % of control
T/C (endpoint: median survival time, dose: 50.0 mg/kg/injection, schedule: Q01DX009 (ip), vehicle: saline): 160 % of control
T/C (endpoint: median survival time, dose: 50.0 mg/kg/injection, schedule: Q01DX009 (ip), vehicle: water): 256 % of control
T/C (endpoint: median survival time, dose: 50.0 mg/kg/injection, schedule: Q01DX009 (oral), vehicle: other): 109 % of control
T/C (endpoint: median survival time, dose: 54.8 mg/kg/injection, schedule: Q01DX009 (ip), vehicle: water): 119 % of control
T/C (endpoint: median survival time, dose: 55.5 mg/kg/injection, schedule: Q01DX009 (ip), vehicle: clinical formulation): 284 % of control
T/C (endpoint: median survival time, dose: 55.5 mg/kg/injection, schedule: Q01DX009 (oral), vehicle: clinical formulation): 108 % of control
T/C (endpoint: median survival time, dose: 62.5 mg/kg/injection, schedule: Q01DX001 (iv), vehicle: clinical formulation): 151 % of control
T/C (endpoint: median survival time, dose: 64.8 mg/kg/injection, schedule: Q01DX009 (ip), vehicle: water): 268 % of control
T/C (endpoint: median survival time, dose: 83.3 mg/kg/injection, schedule: Q01DX009 (ip), vehicle: clinical formulation): 112 % of control
T/C (endpoint: median survival time, dose: 83.3 mg/kg/injection, schedule: Q01DX009 (ip), vehicle: saline): 106 % of control
T/C (endpoint: median survival time, dose: 83.3 mg/kg/injection, schedule: Q01DX009 (ip), vehicle: water): 97 % of control
T/C (endpoint: median survival time, dose: 83.3 mg/kg/injection, schedule: Q04DX003 (ip), vehicle: clinical formulation): 182 % of control
T/C (endpoint: median survival time, dose: 100.0 mg/kg/injection, schedule: Q01DX001 (iv), vehicle: other): 104 % of control
T/C (endpoint: median survival time, dose: 100.0 mg/kg/injection, schedule: Q01DX001 (oral), vehicle: other): 98 % of control
T/C (endpoint: median survival time, dose: 100.0 mg/kg/injection, schedule: Q01DX005 (iv), vehicle: other): 150 % of control and 195 % of control
T/C (endpoint: median survival time, dose: 100.0 mg/kg/injection, schedule: Q01DX005 (oral), vehicle: other): 100 % of control
T/C (endpoint: median survival time, dose: 100.0 mg/kg/injection, schedule: Q01DX009 (oral), vehicle: other): 114 % of control
T/C (endpoint: median survival time, dose: 111.1 mg/kg/injection, schedule: Q01DX009 (ip), vehicle: clinical formulation): 93 % of control
T/C (endpoint: median survival time, dose: 111.1 mg/kg/injection, schedule: Q01DX009 (oral), vehicle: clinical formulation): 121 % of control
T/C (endpoint: median survival time, dose: 125.0 mg/kg/injection, schedule: Q01DX001 (ip), vehicle: clinical formulation): 170 % of control
T/C (endpoint: median survival time, dose: 200.0 mg/kg/injection, schedule: Q01DX001 (iv), vehicle: other): 104 % of control
T/C (endpoint: median survival time, dose: 200.0 mg/kg/injection, schedule: Q01DX001 (oral), vehicle: other): 98 % of control
T/C (endpoint: median survival time, dose: 200.0 mg/kg/injection, schedule: Q01DX005 (ip), vehicle: other): 109 % of control
T/C (endpoint: median survival time, dose: 200.0 mg/kg/injection, schedule: Q01DX005 (iv), vehicle: other): 158 % of control
T/C (endpoint: median survival time, dose: 200.0 mg/kg/injection, schedule: Q01DX005 (oral), vehicle: other): 110 % of control
T/C (endpoint: median survival time, dose: 400.0 mg/kg/injection, schedule: Q01DX001 (iv), vehicle: other): 101 % of control
T/C (endpoint: median survival time, dose: 400.0 mg/kg/injection, schedule: Q01DX001 (oral), vehicle: other): 98 % of control
T/C (endpoint: median survival time, dose: 400.0 mg/kg/injection, schedule: Q01DX005 (oral), vehicle: other): 112 % of control
T/C (endpoint: median survival time, dose: 444.4 mg/kg/injection, schedule: Q01DX009 (oral), vehicle: clinical formulation): 158 % of control
T/C (endpoint: median survival time, dose: 800.0 mg/kg/injection, schedule: Q01DX001 (oral), vehicle: other): 102 % of control
T/C (endpoint: median survival time, dose: 888.8 mg/kg/injection, schedule: Q01DX009 (oral), vehicle: clinical formulation): 184 % of control
